Results as given in patent publication US20250092032A1, “DEOXYCYTIDINE KINASE INHIBITORS” (CENTRE NATIONAL DE LA RECHERCHE SCIENTIFIQUE, priority 2022, published 2025).

Test system: CCRF-CEM T-ALL cell line
Assay: In vivo systemic leukemia model: NSG mice inoculated intravenously with luciferase-expressing CCRF-CEM cells
Description: Healthy 6 to 9 weeks-old male mice received 0.1×10^6 luciferase transduced-CCRF-CEM cells in the tail vein on Day 0 and were randomly assigned in four groups to receive intraperitoneal injections from Day 3 (Vehicle (n=8), dT (n=8), OR0642 (n=9) and dT+OR0642 (n=9)). […] Doses administered were: dT at 1.5 g/Kg, OR0642 at 40 mg/Kg and dT+OR0642 at 1.5 g/Kg and 40 mg/Kg, respectively. Vehicle was saline solution (0.9% NaCl) supplemented with 10% Kolliphor EL. OR0642 was administered in its hydrochloride salt form. Drug administration protocol is detailed in FIG. 4. Bioluminescence analysis was performed once/week using PhotonIMAGER Optima (Biospace Lab) following addition of endotoxin-free luciferin (30 mg/kg, Promega). Peripheral blood was obtained at Day 21 to determine the fraction of human blasts using flow cytometry. […] Analyses were performed on a Life Science Research Fortessa flow cytometer with DIVA software (BD Biosciences). The number of ALL cells/L peripheral blood was determined by using CountBright beads (Invitrogen, C36950) using described protocol. Daily monitoring of mice for symptoms of disease (ruffled coat, hunched back, weakness and reduced motility) determined the time of killing for injected animals with signs of distress. Kaplan-Meier curves, bioluminescence quantifications and statistical analyses were generated using Prism (Graphpad Software). Bioluminescence data were presented as the mean f SEM. Comparison of bioluminescence data at Day 21 was performed using One way ANOVA Kruskal-Wallis Test and Dunn's Multiple Comparison Test. Comparison of hCD45 populations was performed using One way ANOVA Kruskal-Wallis Test and Dunn's Multiple Comparison Test. Median survival times were compared using Log-Rank (Mantel-Cox) Test.

In the case of `Cc1cn([C@H]2C[C@H](O)[C@@H](CO)O2)c(=O)[nH]c1=O` [dT, 1-[(2R,4S,5R)-4-Hydroxy-5-(hydroxymethyl)oxolan-2-yl]-5-methylpyrimidine-2,4(1H,3H)-dione, reference compound], the “effect on disease progression / disease burden (bioluminescence)” value (CCRF-CEM leukemia bearing NSG mice, dT 1.5 g/Kg, OR0642 40 mg/Kg (hydrochloride salt) i.p., FIG. 5) is reported as “scarcely reduced the disease burden” and the “day around which most of the mice died” value (the two components administered separately, FIG. 8) is reported as roughly 26 days.
